Assay [1] has as its system RIN-m5F cells. In words: DAG and cholesterol generation (3H-myristic acid, TLC) in RIN-m5F cells. The class given is cell-based, rat. The conditions noted are these: for level of DAG: versus vehicle control, glucose 16.7 mM. The method, then:
FIGS. 5A-D show the effects of cytopiloyne on calcium mobilization, DAG generation and PKCa activation. (A) After Fura 2-AM loading, RIN-m5F cells were stimulated with 16.7 mM glucose (HG) and cytopiloyne at 7, 14 and 28 μM. Level of intracellular calcium, as shown by the 340/380 nm ratio, was detected using a fluorescence spectrophotometer. (B) RIN-m5F cells were pulsed with ^3H-myristic acid (5 Cim1^−1) for 16 hours. After washing, the cells were stimulated with glucose, cytopiloyne, PMA and glimepiride. Total lipids were separated on a silica thin layer plate. DAG and cholesterol were visualized with iodine vapor and identified by their standards. (C) RIN-m5F cells were incubated with vehicle (Mock), cytopiloyne (CP, 3, 7 and 14 μM), PMA (1 μM) and 16.7 mM (HG). Membrane or cytosolic proteins were subjected to Western blot with anti-PKCα and anti-Actin antibodies. (D) RIN-m5F cells were incubated with vehicle (Mock), cytopiloyne (CP 7 μM) and PMA (1 μM). After lysis, total lystaes were subjected to Western blot with anti-PKCα, anti-phospho-PKCα and anti-Actin antibodies.
RIN-m5F cells were incubated with ^3H-myristic acid ([…]) for 16 hours. After washing, the cells were treated with glucose, cytopiloyne, PMA and glimepiride. Total lipids were extracted as previously described. Radioactive DAG was separated on a silica thin layer plate with the first developer of ethylacetate: acetic acid: triethylpentane (9:2:5) and the second developer of hexane: diethylether: methanol: acetic acid (90:20:3:2). The spot of DAG was visualized with iodine vapor and identified by DAG standard.

In assay [2] the test system is human insulin promoter in HIT-T15 β-cells. In words: Insulin promoter (phINS-Luc) dual luciferase assay in HIT-T15 β-cells. The class given is cell-based, rat. On the procedure: FIGS. 4A-C show an increase in insulin mRNA and protein content by cytopiloyne in pancreatic islet cells. (A) HIT-T15 β-cells transfected with phINS-Luc and pRL-TK plasmids were incubated with vehicle (NS), glimepiride (GLM, 10 μM), high glucose (HG, 16.7 mM) or cytopiloyne at 7, 14 or 28 μM. Ten μg of cell lysates from these cells underwent to dual luciferase assays. […] (C) Rat pancreatic islet cells were treated with vehicle, glucose (3.3 mM (LG) or 16.7 mM (HG)) or cytopiloyne (CP, 7, 14 and 28 μM) in the presence of brefeldin A for 24 h. After anti-insulin antibody staining, these cells underwent FACS analysis. The percentage of insulin-positive β-cells is shown. All the results from 3 independent experiments are expressed as mean±SEM, and P<0.05 was considered to be statistically significant (*).
(A) RIN-M5F cells were grown in medium with 16.7 mM (HG) or 3.3 mM glucose (LG) in the presence of PMA. GF and cytopiloyne. The insulin level of the supernatants was determined using an ELISA kit. (B) RIN-M5F cells were transfected with 5 μg of dominant-negative PKCα or control plasmid grown in medium with 16.7 mM (HG) or 3.3 mM glucose (LG) in the presence of PMA (1 μM), GF109203X (3 μM) or cytopiloyne. The insulin level of the supernatants was determined using an ELISA kit. (C) HIT-T15 cells were transfected with phINS-Luc and pRL-TK plasmids. The cells were grown in medium with 16.7 mM (HG) or 3.3 mM glucose (LG) in the absence or presence of PMA, GF109203X and cytopiloyne. The cell lysates were subjected to dual luciferase assays. (D) HIT-T15 cells were transfected with vehicle or dominant-negative PKCα plasmid together with phINS-Luc and pRL-TK plasmids. The cells were grown in medium with 16.7 mM (HG) or 3.3 mM glucose (LG) in the absence or presence of PMA and cytopiloyne. The cell lysates were subjected to dual luciferase assays.
Plasmids phINS-Luc and pRL-TK contain a human insulin promoter (2347 bp) from phINS-DCR3 vector linked to a firefly luciferase gene and the thymidine kinase promoter linked to Renilla luciferase reporter gene, respectively. Dominant-negative PKCα, phINS-Luc and/or pRL-TK were transfected into HIT-T15 cells with lipofectamine or electroporation.

In assay [3] the test system is db/db mice. In words: Blood insulin after a single oral dose in fed diabetic db/db mice. The class given is in vivo, mouse. The conditions noted are these: for blood insulin levels compared to vehicle, effect in words: single dose, db/db mice; for Blood insulin level: fed db/db mice. The method, then: After 0.5 h, the levels of postprandial blood sugar and insulin from the mice were monitored for additional 4 h. For continued administration, diabetic db/db males were grouped and tube-fed with vehicle, cytopiloyne (0.5 or 2.5 mgkg^−1 day^−1) or glimepiride (2.5 mg kg^−1 day^−1) for the indicated time, while levels of blood sugar, insulin, and glycosylated HbA1c, and glucose tolerance in these mice were determined. To evaluate the prophylaxis of diabetes, diabetes-free db/db mice at 4 weeks of age were tube-fed with vehicle or cytopiloyne (CP, 0.5 mgkg^−1), once a day, for 4 weeks. Unless indicated otherwise, the mice were fasted for 16 h, then Postprandial blood glucose and insulin in these mice were measured.
Glucose levels in mouse blood samples were measured using an Elite® glucometer (Bayer, Pittsburgh, Pa., USA). Insulin levels in blood samples or islet cell supernatants were determined by ELISA assays (Mercodia, Uppsala, Sweden). The levels of glycosylated HbA1c in mouse blood samples were measured using DCA 2000 analyzer (Bayer, Pittsburgh, Pa., USA).
The same procedure as Table 1 was performed. Blood samples at the indicated time interval (0, 0.5, 1, 2, and 4 h) were collected from the retro-orbital vein of those mice and the insulin levels in each blood sample were determined using ELISA kits. The number of mice used (n) is indicated in parentheses in the first column.

Where [4] appears, read: single oral dose 2.5 mg/kg, 0 h.
The mark [5] stands for this setting: single oral dose 2.5 mg/kg, 0.5 h.
Setting [6] is: single oral dose 2.5 mg/kg, 1 h.
The mark [7] stands for this setting: single oral dose 2.5 mg/kg, 2 h.
Setting [8] is: single oral dose 2.5 mg/kg, 4 h.

Take `CC#CC#CC#CC#CCCC(CO)O[C@@H]1O[C@H](CO)[C@@H](O)[C@H](O)[C@H]1O` (stereo partly drawn) [cytopiloyne, 2-β-D-glucopyranosyloxy-1-hydroxytrideca-5,7,9,11-tetrayne]: the level of cholesterol result in assay [1] is “not cholesterol”. Besides, the “level of DAG” value in assay [1] is listed as “dose-dependently increased the level of DAG”. Also, the “insulin transcription (reporter), fold increase” value in assay [2] (28 μM, HIT-T15 β-cells, 24 h) is reported as 5 times. Also, the “insulin transcription in HIT-T15 cells” value in assay [2] (FIG. 6C, glucose 16.7 mM) is listed as “stimulated insulin transcription”. Also, the “blood insulin levels compared to vehicle, effect in words” value in assay [3] was “significantly elevated the blood insulin levels”. In addition, the Blood insulin level in assay [3] (single oral dose 0.1 mg/kg, 0 h) was 17.2 ± 4.7 µg/L; in assay [3] (single oral dose 0.1 mg/kg, 0.5 h) it was 21.0 ± 1.3 µg/L; in assay [3] (single oral dose 0.1 mg/kg, 1 h), 15.5 ± 0.6 µg/L; in assay [3] (single oral dose 0.1 mg/kg, 2 h), 14.1 ± 0.5 µg/L; in assay [3] (single oral dose 0.1 mg/kg, 4 h) it was 9.7 ± 1.3 µg/L; in assay [3] (single oral dose 0.5 mg/kg, 0 h) it was 15.7 ± 1.9 µg/L. The Blood insulin level in assay [3] (single oral dose 0.5 mg/kg, 0.5 h) amounted to 22.6 ± 1.9 µg/L; in assay [3] (single oral dose 0.5 mg/kg, 1 h), 16.0 ± 2.4 µg/L; in assay [3] (single oral dose 0.5 mg/kg, 2 h) it was 12.8 ± 0.7 µg/L; in assay [3] (single oral dose 0.5 mg/kg, 4 h) it was 12.2 ± 1.9 µg/L; in assay [3] (setting [4]), 12.5 ± 1.2 µg/L; in assay [3] (setting [5]), 25.5 ± 1.2 µg/L. Further, the Blood insulin level in assay [3] (setting [6]) turned out to be 18.9 ± 3.3 µg/L; in assay [3] (setting [7]), 17.6 ± 1.7 µg/L; in assay [3] (setting [8]), 8.9 ± 2.1 µg/L.

Take `CCC1=C(C)CN(C(=O)NCCc2ccc(S(=O)(=O)NC(=O)N[C@H]3CC[C@H](C)CC3)cc2)C1=O` [glimepiride, reference compound]: the “level of DAG” value in assay [1] is on record as “significantly increased the level of DAG”. Also, the “insulin transcription (reporter) compared to the control” value in assay [2] (10 μM, HIT-T15 β-cells, 24 h) was “no significant effect on insulin transcription”. Besides, the “blood insulin levels compared to vehicle, effect in words” value in assay [3] is reported as “significantly elevated the blood insulin levels”. Besides, the Blood insulin level in assay [3] (setting [4]) was found to be 13.9 ± 1.2 µg/L; in assay [3] (setting [5]), 19.3 ± 4.2 µg/L; in assay [3] (setting [6]), 26.3 ± 3.3 µg/L; in assay [3] (setting [7]) it was 15.9 ± 1.7 µg/L; in assay [3] (setting [8]) it was 11.8 ± 2.1 µg/L.

For the origin of these results see patent US8575116B1, “Polyacetylenic compounds for protecting against pancreatic islet atrophy” (Academia Sinica, priority 2010, dated 2013).
